Experimental findings from ChEMBL document CHEMBL1201862, “PubChem BioAssay data set” (2004) are described below.

Common to all, as to assay: NCI-60 cell line screen, 48 h
Assay [1] concerns CAKI-1.
In assay [2] the test system is SR.
The test system of assay [3] is M19-MEL.
Assay [4] concerns KM12.
Assay [5] deals with NCI/ADR-RES.
Assay [6] relates to MOLT-4.
Assay [7] concerns SNB-78.
For assay [8], the system named is ACHN.
For assay [9], the system named is HT-29.
Assay [10] relates to SF-539.
Assay [11] concerns IGROV-1.
Assay [12] deals with SK-MEL-28.
Assay [13] deals with RPMI-8226.
Assay [14] deals with OVCAR-3.
In assay [15] the test system is UACC-257.
The subject of assay [16] is DMS-114.
In assay [17] the test system is HL-60.
Assay [18] deals with U-251.
The test system of assay [19] is M14.
The test system of assay [20] is DMS-273.

Molecules are shown by their SMILES.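 Grown in 96-well plates, cells were treated for 48 hours with each compound at five concentrations. Insufficient inhibition: endpoint recorded as highest concentration tested. GI50 is the concentration that inhibits growth by half.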 The source made the active and inactive calls. No stated cut-off is given here; in the data, active = GI50 up to about 1.1 µM and inactive = higher. Bounds are passed on as bounds.

In the case of `COc1cc([C@H]2c3cc4c(cc3O[C@@]3(O)COC(=O)[C@@H]23)OCO4)cc(OC)c1OC`, the GI50 in [1], in assay [2], in [3], in [4], in assay [5] and in assay [6] was > 100 µM (inactive) throughout. The GI50 in [7], in [8], in assay [9], in [10], in assay [11] and in assay [12] was > 100 µM (inactive) throughout. Further, the GI50 in assay [13], in assay [14], in [15], in assay [16], in assay [17] and in assay [18] was > 100 µM (inactive) throughout. Moreover, the GI50 in assay [19] and in assay [20] was > 100 µM (inactive) each time.

As for `Cc1ccccc1-n1c(=S)[nH]c2c(sc(=O)n2-c2ccccc2C)c1=O`, the GI50 in assay [1], in [2], in assay [3], in [4], in assay [6] and in [7] was > 100 µM (inactive) each time. Moreover, the GI50 in assay [8], in assay [9], in assay [10], in [11], in assay [12] and in assay [13] was > 100 µM (inactive) throughout. Further, the GI50 in assay [14], in [15], in assay [16], in [17], in assay [18] and in [19] was > 100 µM (inactive) throughout. The GI50 in [20] is > 100 µM (inactive).

As for `COc1cc(-c2[nH]ccc2Cl)oc1C1=C2N=C3C=C2C(C(C)C)C1CCCCCCCC3` (centres undefined), the GI50 in assay [1] is 2 µM (inactive); in assay [2] it was 0.292 µM (active); in [3], 0.603 µM (active); in assay [4] it was 0.476 µM (active); in [6], 0.433 µM (active); in [7] it was 2.83 µM (inactive). The GI50 in assay [8] is 0.971 µM (active); in [9], 0.252 µM (active); in assay [10], 0.869 µM (active); in assay [11], 0.993 µM (active); in assay [12], 1.35 µM (inactive); in assay [13], 0.339 µM (active). Further, the GI50 in [14] is 0.61 µM (active); in assay [15], 1.29 µM (inactive); in assay [16] it was 0.485 µM (active); in assay [17], 0.299 µM (active); in assay [18], 0.711 µM (active); in assay [19], 0.438 µM (active). The GI50 in assay [20] was 0.589 µM (active).

Regarding `CN(C)c1ccc(/C=N/C23CC4CC(CC(C4)C2)C3)cc1`, the GI50 in [1], in [2], in assay [3], in assay [4], in assay [6] and in assay [7] was > 100 µM (inactive) throughout. Also, the GI50 in assay [8], in assay [9], in assay [10], in assay [11], in [12] and in assay [13] was > 100 µM (inactive) throughout. For the same compound, the GI50 in [14], in assay [15], in [16], in assay [17], in assay [18] and in assay [19] was > 100 µM (inactive) throughout. The GI50 in assay [20] is > 100 µM (inactive).

As for `O=c1c(NO)c([N+](=O)[O-])cnn1-c1ccccc1`, the GI50 was 5.53 µM (inactive) in assay [1]; 2.78 µM (inactive) in [2]; 3.67 µM (inactive) in assay [3]; 9.62 µM (inactive) in assay [4]; 2.39 µM (inactive) in assay [6]; 16.9 µM (inactive) in assay [7]. Moreover, the GI50 was 8.53 µM (inactive) in assay [8]; 2.6 µM (inactive) in [9]; 15.2 µM (inactive) in assay [10]; 21.1 µM (inactive) in assay [11]; 3.43 µM (inactive) in [12]; 4.93 µM (inactive) in assay [13]. Further, the GI50 was 2.98 µM (inactive) in assay [14]; 6.37 µM (inactive) in assay [15]; 15.8 µM (inactive) in assay [16]; 0.789 µM (active) in assay [17]; 3.12 µM (inactive) in [18]; 1.99 µM (inactive) in assay [19]. For the same compound, in assay [20], the GI50 was 3.26 µM (inactive).

For the compound `C=CC1(CC)/C(=N\O)C(CC)(CC)C(=O)N1O` (centres undefined), the GI50 in assay [1], in assay [2], in assay [3], in assay [4], in assay [6] and in assay [7] was > 100 µM (inactive) in each case. In addition, the GI50 in [8], in [9], in [10], in assay [11], in assay [12] and in assay [13] was > 100 µM (inactive) throughout. The GI50 in assay [14], in [15], in assay [16], in [17], in [18] and in assay [19] was > 100 µM (inactive) in each case. Besides, in assay [20], the GI50 was > 100 µM (inactive).

Consider `CN1C(c2ccccc2)CC(O)CC1c1ccccc1` (centres undefined), for which the GI50 in assay [1], in assay [2], in assay [3], in assay [4], in assay [6] and in assay [7] was > 100 µM (inactive) in each case. The GI50 in assay [8], in assay [9], in [10], in assay [11], in [12] and in [13] was > 100 µM (inactive) throughout. Moreover, the GI50 in assay [14], in assay [15], in assay [16], in assay [17], in [18] and in [19] was > 100 µM (inactive) throughout. Besides, the GI50 in assay [20] is > 100 µM (inactive).
